From patent US20250066291A1, “TARGETED COVALENT INHIBITORS FOR CARBONIC ANHYDRASES” (VILNIUS UNIVERSITY, priority 2023, published 2025)

Experiments:
[1] = target: T1, CAIX (Homo sapiens, UniProt Q16790); assay: Stopped-flow CO2 hydration, CAIX activity before and after dialysis; type: biochemical; conditions: for CAIX catalytic activity after 32 hours of dialysis: […] CAIX incubated 2 h with 15 μM AV19-37 or 100 μM AV19-36, dialyzed in Tris buffer pH 7
Experimental: A—CAIX incubated for 2 hours with compounds and the CO2 hydration was measured. B—CAIX was incubated for 2 hours with the compound and then the complex was dialyzed for 32 hours in Tris buffer (pH 7.0). Black curves represent CAIX catalyzed CO2 hydration reaction. Grey curves are spontaneous CO2 hydration without the CA enzyme.
CO2 hydration velocities were measured by recording absorbance of phenol red (final concentration 50 μM) at 557 nm by using Applied Photophysics SX.18 MV-R stopped-flow spectrometer.

[2] = target: CAIII (Homo sapiens, UniProt P07451); assay: Mass spectrometry (Q-TOF) of covalent modification of CAIII; type: binding; conditions: CAIII in the presence of ligand
Sequence of CAIII (P07451 whole entry): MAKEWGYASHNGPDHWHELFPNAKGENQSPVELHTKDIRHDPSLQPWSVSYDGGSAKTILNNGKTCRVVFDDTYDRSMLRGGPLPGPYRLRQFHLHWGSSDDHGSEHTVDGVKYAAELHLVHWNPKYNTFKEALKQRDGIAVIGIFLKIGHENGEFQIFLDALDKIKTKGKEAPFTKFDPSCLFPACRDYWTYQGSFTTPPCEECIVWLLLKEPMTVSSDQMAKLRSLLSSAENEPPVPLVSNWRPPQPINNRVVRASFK

[3] = target: T1, CAIX; assay: Isothermal titration calorimetry (ITC) binding to CAIX; conditions: pH 7.0, TRIS chloride buffer, 37° C., FIG. 1D
Experimental: A—Raw data of CAIX unfolding in the presence of different compound concentrations. B—dependence of CAIX melting temperature Tm on ligand concentration. […] C—raw ITC curve at pH 7.0, TRIS chloride buffer, at 37° C. D—Integrated ITC curve.

Row | CAIX catalytic activity after 2 hours of incubation with compound ([1]; […] CAIX, 15 μM compound, CO2 hydration, 25° C., pH 7.5) | covalent modification by MS [2] | compound binding stoichiometry [3] | SMILES | CAIX catalytic activity after 32 hours of dialysis [1]
1 |  |  |  | CC(=O)OCCSc1c(F)c(F)c(S(N)(=O)=O)c(F)c1F [AV19-36, 2-((2,3,5,6-tetrafluoro-4-sulfamoylphenyl)thio)ethyl acetate] | partially restored its catalytic activity
2 | lost its catalytic activity | did not show a covalent modification | ~1 | CC(=O)OCCS(=O)(=O)c1c(F)c(F)c(S(N)(=O)=O)c(F)c1NC1CCCCCCC1 [AV19-37, 2-((2-(cyclooctylamino)-3,5,6-trifluoro-4-sulfamoylphenyl)sulfonyl)ethyl acetate] | not restored
